Measured values reported in patent US8513264B2, “Combination therapy for the treatment of diabetes and related conditions” (Boehringer Ingelheim International GmbH, priority 2008, dated 2013).

Assays:
[1] = system: Zucker Diabetic Fatty (ZDF) rats (ZDF/Crl-Lepr^fa); experiment: Oral glucose tolerance test in overnight fasted 9-weeks old male ZDF rats; type: in vivo, rat; settings: 9-weeks old ZDF rats; single oral dose 3 mg/kg 30 min before glucose load 2 g/kg; versus vehicle control
Method: (§1) According to a first example an oral glucose tolerance test is performed in overnight fasted 9-weeks old male Zucker Diabetic Fatty (ZDF) rats (ZDF/Crl-Lepr^fa). A pre-dose blood sample is obtained by tail bleed. Blood glucose is measured with a glucometer, and the animals are randomized for blood glucose (n=5/group). […] The animals receive an oral glucose load (2 g/kg) 30 min after compound administration. Blood glucose is measured in tail blood 15 min, 30 min, 60 min, and 90 min after the glucose challenge. Glucose excursion is quantified by calculating the reactive glucose AUC. The data are presented as mean±SEM. The two-sided unpaired Student t-test is used for statistical comparison of the control group and the active groups as well as between active groups.

[2] = system: Zucker Diabetic Fatty (ZDF) rats (ZDF/Crl-Lepr^fa); experiment: Oral glucose tolerance test in overnight fasted 15-weeks old male ZDF rats (highly insulin-resistant model); type: in vivo, rat; settings: 15-weeks old ZDF rats; single oral dose 3 mg/kg 30 min before glucose load 2 g/kg; versus vehicle control
Method: as §1, with “to a second example an” for “to a first example an”, “overnight fasted 15-weeks old male” for “overnight fasted 9-weeks old male”, “rats (ZDF/Crl-Lepr^fa). This aged ZDF rats serve as a highly insulin-resistant animal model. A pre-dose” for “rats (ZDF/Crl-Lepr^fa). A pre-dose”, “tail blood 30 min,” for “tail blood 15 min, 30 min,”, “60 min, 90 min, 120 min, and 180” for “60 min, and 90”, “min, and 180 min after” for “min, and 90 min after”

[3] = Excretion route at therapeutic oral dose levels; type: in vivo; settings: mainly excreted via the liver

- excretion via the kidney [3]: < 7 % of the administered oral dose
Structure (SMILES): CC#CCn1c(N2CCC[C@@H](N)C2)nc2c1c(=O)n(Cc1nc(C)c3ccccc3n1)c(=O)n2C [Cpd. A, 1-[(4-methyl-quinazolin-2-yl)methyl]-3-methyl-7-(2-butyn-1-yl)-8-(3-(R)-amino-piperidin-1-yl)-xanthine]
- reduction of glucose excursion (reactive glucose AUC) [1]: 49%
- reduction of glucose excursion (reactive glucose AUC) [2]: 1%
